The results in this text go back to publication PMC5298241, “Mitochondria-penetrating peptides conjugated to desferrioxamine as chelators for mitochondrial labile iron” (PLoS ONE, 2017).

Where two headings read alike, the source gives them in different places. Numbered stars: 1 amine (or outer) side, 2 acyl side, 3 side chain; on linkers, the order of the positions; unused ones are H or OH. Square brackets hold non-standard residues; d marks the D form. Peptide text beside a SMILES is read from it. * marks the point of attachment. 5TAMRA = CN(C)c1ccc2c(c1)Oc1cc(N(C)C)ccc1C21OC(=O)c2cc(C(=O)*)ccc21; DFO = CC(=O)N(O)CCCCCNC(=O)CCC(=O)N(O)CCCCCNC(=O)CCC(=O)N(O)CCCCCN*; Cha = N[C@@H](CC1CCCCC1)C(=O)O; Suc = O=C(CCC(=O)[*:2])[*:1]

One may read the IC50 as the point on the concentration scale where inhibition reaches its midpoint. Lower therefore signals inhibition by little substance.

The test system of experiment [1] is A2780 cells.
Protocol: (§1) A2780 (human ovarian cancer) cell line was obtained from Fox Chase Cancer Center (USA) and cultured in RPMI-1640 medium supplemented with 10% FBS and 1% penicillin/streptomycin. Cells were incubated at 37°C in a humidified incubator with a 5% CO2.
(§2) A2780 cells were plated in 96-well flat-bottom tissue culture plates (Starstedt) at 25,000 cells per well. The culture medium was removed, and cells were washed. Cellular viability was analyzed after an overnight incubation at 37°C with 5% CO2 using the CCK-8 viability dye (Dojindo, Rockville, Maryland) at an absorbance of 450 nm. From the resulting dose-response curves, 50% growth inhibitory concentration (IC50) values were determined by interpolation [22].
Experiment [2] relates to mitochondria of A2780 cells. In words: Mitochondrial localization (colocalization with MitoTracker Deep Red). Format: cell-based, human. Conditions: TAMRA-labeled mtDFO 1–10 μM, 1 h, MitoTracker Deep Red 30 min, epifluorescence microscopy, ImageJ. On the procedure:
A2780 cells were seeded in an imaging dish in 2 mL of growth medium at 60% confluence. The growth medium was swapped with premixed medium containing 1–10 μM of TAMRA-mtDFO, and the cells were allowed to incubate with the dye for 1 h. MitoTracker Deep Red was added to the cells at 1.0–4.0 μM concentrations and allowed to incubate for 30 min. At the end of the incubation period, the medium was aspirated, and the cells were washed with 3 × 1 mL PBS and incubated with 2 mL of dye-free DMEM. The imaging experiments were performed using a Zeiss Axiovert 200M inverted epifluorescence microscope equipped with an EM-CCD digital camera (Hamamatsu) and a MS200 XY Piezo Z stage (Applied Scientific Instruments). The light source was an X-Cite 120 metal-halide lamp (EXFO), and the fluorescence images were obtained with an oil-immersion objective at 63× magnification. The microscope was operated by the Volocity software program of Perkin-Elmer. Colocalization of the dyes was quantitated using the program ImageJ using a previously described protocols.

Experiment [3] can be described thus: Antioxidant activity (iron-catalysed oxidation of DHR by ascorbate). Format: biochemical. The conditions noted are these: 20 μM chelator, 40 μM ascorbic acid, 50 μM DHR in HBS; Fe(NTA) or serum of iron-overloaded patients; 37°C, slopes 15−40 min. On the procedure: The standard ferric nitrilotriacetate (Fe(NTA)) complex (1:3 Fe:NTA molar ratio) was prepared by adding FAS to a stock solution of aqueous NTA, and allowed to react for 1 h at 37°C under air so that iron is oxidized to Fe(III) (evidenced by the change of color to deep yellow). Then, 180 μL of a mixture of 40 μM ascorbic acid, 50 μM DHR, and 20 μM chelators (DFO, DFO-Tat, DFO-1A, DFO-SS02 e DFO-SS20) in HBS was placed in a 96-well microplate and treated with 20 μL of either Fe(NTA) at different concentrations or sera from iron overloaded patients. Assays were performed in duplicate. Sera samples were furnished by Dr. Nelson Hamerschlak, Albert Einstein Hospital, São Paulo. Fluorescence was measured in a BMG FluoStar Optima instrument for 60 min at 37°C (λexc/λem = 485/520 nm). The slopes (indicating rate of oxidation, presented in fluorescence units per minute) of the oxidation curves were calculated in the time range 15−40 min and were plotted against iron concentration.

Experiment [4] concerns A2780 cells. Kind of experiment: cells. Conditions: Homo sapiens, A2780, 24 h.
Protocol: as §1, §2
Where [5] appears, read: A2780 cells, 24 h (overnight incubation at 37°C, 5% CO2), CCK-8 viability dye, absorbance 450 nm, interpolation of dose-response curves, average ± s.d. of at least three independent experiments.

Molecule `CC(=O)N(O)CCCCCNC(=O)CCC(=O)N(O)CCCCCNC(=O)CCC(=O)N(O)CCCCCNC(=O)CCC(=O)N[C@@H](Cc1ccccc1)C(=O)N[C@H](CCCNC(=N)N)C(=O)N[C@@H](Cc1ccccc1)C(=O)N[C@@H](CCCCN)C(N)=O` [DFO-SS20] ({DFO-Suc}-F[dR]FK-NH2) showed an IC50 in the experiment on A2780 cells [1] (24 h) of 62.4 ± 1.13 µM.
In the experiment with A2780 cells [1] (setting [5]), `CC(=O)N(O)CCCCCNC(=O)CCC(=O)N(O)CCCCCNC(=O)CCC(=O)N(O)CCCCCNC(=O)CCC(=O)N[C@@H](CCCNC(=N)N)C(=O)N[C@@H](CCCCN)C(=O)N[C@@H](CCCCN)C(=O)N[C@@H](CCCNC(=N)N)C(=O)N[C@@H](CCCNC(=N)N)C(=O)N[C@@H](CCC(N)=O)C(=O)N[C@@H](CCCNC(=N)N)C(=O)N[C@@H](CCCNC(=N)N)C(=O)N[C@@H](CCCNC(=N)N)C(=O)O` [DFO-TAT] came in with a half-maximal inhibitory concentration (IC50) of 111 ± 1.17 µM.
Same read-out and setting: as for `CC(=O)N(O)CCCCCNC(=O)CCC(=O)N(O)CCCCCNC(=O)CCC(=O)N(O)CCCCCNC(=O)CCC(=O)N[C@@H](Cc1c(C)cc(O)cc1C)C(=O)N[C@H](CCCNC(=N)N)C(=O)N[C@@H](Cc1ccccc1)C(=O)N[C@@H](CCCCN)C(N)=O` [DFO-SS02], the figure is 42.9 ± 1.06 µM.
Regarding `CC(=O)N(O)CCCCCNC(=O)CCC(=O)N(O)CCCCCNC(=O)CCC(=O)N(O)CCCCCNC(=O)CCC(=O)N[C@@H](Cc1ccccc1)C(=O)N[C@H](CCCNC(=N)N)C(=O)N[C@@H](Cc1ccccc1)C(=O)N[C@@H](CCCCN)C(=O)N[C@@H](CCCCNC(=O)c1ccc2c(c1)C(=O)OC21c2ccc(N(C)C)cc2Oc2cc(N(C)C)ccc21)C(N)=O` [DFO-SS20-TAMRA] ({DFO-Suc}-F[dR]FKK(5TAMRA)-NH2), in the experiment on A2780 cells [1] (24 h), the IC50 turned out to be 7.91 ± 1.19 µM.
With carboxy-tetramethylrhodamine [TAMRA], the “Rr = Pearson correlation coefficient (colocalization with MitoTracker)” value in experiment [2] was “does not locate by itself in the mitochondria”.
For `CC(=O)N(O)CCCCCNC(=O)CCC(=O)N(O)CCCCCNC(=O)CCC(=O)N(O)CCCCCN` [DFO, Desferrioxamine], in experiment [3], the “Suppression of iron-catalysed oxidation of the DHR probe” value was “efficiently suppressed”. In the experiment with A2780 cells [4], this molecule showed an IC50 of 1450 ± 130 µM.
Turning to `CC(=O)N(O)CCCCCNC(=O)CCC(=O)N(O)CCCCCNC(=O)CCC(=O)N(O)CCCCCNC(=O)CCC(=O)N[C@@H](CC1CCCCC1)C(=O)N[C@H](CCCNC(=N)N)C(=O)N[C@@H](CC1CCCCC1)C(=O)N[C@@H](CCCCN)C(=O)N[C@@H](CC1CCCCC1)C(=O)N[C@H](CCCNC(=N)N)C(=O)N[C@@H](CC1CCCCC1)C(=O)N[C@@H](CCCCN)C(N)=O` [DFO-1A] ({DFO-Suc}-[Cha][dR][Cha]K[Cha][dR][Cha]K-NH2), in the experiment with A2780 cells [1] (24 h), the midpoint of inhibition, the IC50, lay at 108 ± 2.51 µM.
`CC(=O)N(O)CCCCCNC(=O)CCC(=O)N(O)CCCCCNC(=O)CCC(=O)N(O)CCCCCNC(=O)CCC(=O)N[C@@H](CC1CCCCC1)C(=O)N[C@H](CCCNC(=N)N)C(=O)N[C@@H](CC1CCCCC1)C(=O)N[C@@H](CCCCN)C(=O)N[C@@H](CC1CCCCC1)C(=O)N[C@H](CCCNC(=N)N)C(=O)N[C@@H](CC1CCCCC1)C(=O)N[C@@H](CCCCN)C(=O)N[C@@H](CCCCNC(=O)c1ccc2c(c1)C(=O)OC21c2ccc(N(C)C)cc2Oc2cc(N(C)C)ccc21)C(N)=O` [DFO-1A-TAMRA] ({DFO-Suc}-[Cha][dR][Cha]K[Cha][dR][Cha]KK(5TAMRA)-NH2): the IC50 in the experiment on A2780 cells [1] (24 h) was found to be 2.97 ± 1.06 µM.
